Columns and labels:
[1] = xn = mol fraction of the nth substance listed; conditions: Ring tensiometer
[2] = Ring tensiometer

C[S+](C)[O-] [dimethyl sulfoxide] + CCCO
surface tension liquid-gas [mN/m], [1]
Conditions | 288.15 K | 298.15 K | 308.15 K | 318.15 K | 328.15 K
x2 = 0.0454 | 40.3 | 39.39 | 37.85 | 36.89 | 36.64
x2 = 0.1248 | 36.24 | 35.91 | 34.14 | 33.79 | 33.37
x2 = 0.2498 | 33.09 | 32.37 | 31.06 | 30.95 | 30.07
x2 = 0.3821 | 30.1 | 29.48 | 28.96 | 28.33 | 27.01
x2 = 0.4997 | 28.34 | 27.81 | 27.06 | 26.41 | 25.5
x2 = 0.5959 | 27.14 | 26.34 | 25.67 | 25.02 | 24.15
x2 = 0.661 | 26.33 | 25.7 | 24.6 | 24.15 | 23.35
x2 = 0.7081 | 25.71 | 25.17 | 24.41 | 23.65 | 22.77
x2 = 0.7437 | 25.25 | 24.74 | 23.97 | 23.15 | 22.45
x2 = 0.8523 | 24.28 | 23.5 | 22.89 | 22.34 | 21.64
x2 = 0.9519 | 23.55 | 22.58 | 22.13 | 21.5 | 20.28

CCCCCCO [hexan-1-ol]
[2]
Conditions | surface tension liquid-gas [mN/m]
288.15 K | 25.38
298.15 K | 24.51
308.15 K | 23.86
318.15 K | 23.02
328.15 K | 22.33

C[S+](C)[O-] [dimethyl sulfoxide] + CCCCO
surface tension liquid-gas [mN/m], [1]
Conditions | 288.15 K | 298.15 K | 308.15 K | 318.15 K | 328.15 K
x2 = 0.0373 | 39.63 | 38.43 | 38.16 | 36.84 | 36.19
x2 = 0.1042 | 36.3 | 35.44 | 34.43 | 33.54 | 32.99
x2 = 0.2136 | 32.33 | 32.03 | 30.37 | 30.79 | 29.37
x2 = 0.3353 | 30.13 | 29.72 | 28.82 | 28.06 | 27.19
x2 = 0.449 | 28.57 | 27.92 | 27.16 | 26.61 | 25.8
x2 = 0.5461 | 27.41 | 26.74 | 25.98 | 25.33 | 24.35
x2 = 0.614 | 26.65 | 26.06 | 25.27 | 24.55 | 23.85
x2 = 0.6643 | 26.18 | 25.55 | 24.84 | 23.98 | 23.3
x2 = 0.703 | 25.77 | 25.17 | 24.41 | 23.6 | 22.56
x2 = 0.8512 | 25.14 | 24.33 | 23.41 | 22.28 | 20.86
x2 = 0.9521 | 24.57 | 23.98 | 22.68 | 21.94 | 20.55

C[S+](C)[O-] [dimethyl sulfoxide]
[2]
Conditions | surface tension liquid-gas [mN/m]
288.15 K | 43.68
298.15 K | 42.18
308.15 K | 41.11
318.15 K | 39.99
328.15 K | 38.72

CCCCO [butan-1-ol]
[2]
Conditions | surface tension liquid-gas [mN/m]
288.15 K | 24.28
298.15 K | 23.48
308.15 K | 22.4
318.15 K | 21.64
328.15 K | 20.56

CCCO [propan-1-ol]
[2]
Conditions | surface tension liquid-gas [mN/m]
288.15 K | 23.24
298.15 K | 22.5
308.15 K | 21.39
318.15 K | 20.88
328.15 K | 20.18

CCCCCCO [hexan-1-ol] + C[S+](C)[O-]
surface tension liquid-gas [mN/m], [1]
Conditions | 288.15 K | 298.15 K | 308.15 K | 318.15 K | 328.15 K
x1 = 0.0276 | 38.76 | 37.64 | 37.53 | 36.73 | 35.16
x1 = 0.0786 | 34.22 | 33.57 | 34.04 | 33.39 | 32.7
x1 = 0.1661 | 31.83 | 30.74 | 30.98 | 30.06 | 28.96
x1 = 0.2701 | 29.83 | 29.35 | 28.94 | 28.16 | 27.55
x1 = 0.3741 | 28.72 | 27.95 | 27.68 | 26.94 | 26.24
x1 = 0.4687 | 27.91 | 27.29 | 26.7 | 26.16 | 25.36
x1 = 0.5385 | 27.47 | 26.83 | 26.27 | 25.57 | 25.04
x1 = 0.5921 | 26.99 | 26.24 | 25.85 | 25.07 | 24.29
x1 = 0.6345 | 26.53 | 26.06 | 25.62 | 24.72 | 24.02
x1 = 0.7511 | 26 | 25.85 | 25.2 | 24.44 | 23.84
x1 = 0.9512 | 25.48 | 25.1 | 24.75 | 24.14 | 23.12

From the NIST ThermoML archive (doi:10.1016/j.jct.2013.04.009)
